Where a SMILES comes first, the peptide text is derived from it. [ ]: non-standard residue; d: D form. The star is where a group is joined. ξ: configuration not given here. ξαMeP = CC1(C(=O)O)CCCN1; PhAc = O=C(Cc1ccccc1)*
Experiments:
NTMT1 [1] = target: T1, NTMT1 (Homo sapiens, UniProt Q9BV86); experiment: SAH hydrolase; assay type: biochemical; conditions: for fold loss in inhibition compared to 6 (BM30): IC50 ratio vs BM30; for inhibitory activity for NTMT1 (in words): up to 100 μM
T1 sequence (Q9BV86 1-223): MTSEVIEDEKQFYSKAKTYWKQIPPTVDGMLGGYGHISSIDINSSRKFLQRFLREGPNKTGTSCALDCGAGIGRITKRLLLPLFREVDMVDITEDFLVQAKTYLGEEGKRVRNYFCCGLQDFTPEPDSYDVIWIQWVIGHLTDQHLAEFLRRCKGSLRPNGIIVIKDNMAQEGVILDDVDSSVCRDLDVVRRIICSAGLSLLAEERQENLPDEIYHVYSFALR

PRMT1 = PRMT1 (Homo sapiens, UniProt Q99873); experiment: SAH hydrolase-coupled fluorescence selectivity assay, PRMT1; assay type: biochemical
[2] = tested on: panel of 41 MTases (NTMT1/2, PKMTs, PRMTs, DNMTs); experiment: Selectivity panel of 41 MTases; assay type: biochemical
NTMT1 [3] = target: T1, NTMT1; experiment: Inhibition mechanism, SAHH-coupled fluorescence assay; assay type: biochemical
HCT116 cells = experiment: Cell permeability evaluation by MALDI-MS; assay type: cell-based; conditions: 100 μM, listed as BM30
G9a = target: T2, G9a (Homo sapiens, UniProt Q96KQ7); experiment: SAH hydrolase-coupled fluorescence selectivity assay, G9a; assay type: biochemical
T2 sequence (Q96KQ7 1-1210): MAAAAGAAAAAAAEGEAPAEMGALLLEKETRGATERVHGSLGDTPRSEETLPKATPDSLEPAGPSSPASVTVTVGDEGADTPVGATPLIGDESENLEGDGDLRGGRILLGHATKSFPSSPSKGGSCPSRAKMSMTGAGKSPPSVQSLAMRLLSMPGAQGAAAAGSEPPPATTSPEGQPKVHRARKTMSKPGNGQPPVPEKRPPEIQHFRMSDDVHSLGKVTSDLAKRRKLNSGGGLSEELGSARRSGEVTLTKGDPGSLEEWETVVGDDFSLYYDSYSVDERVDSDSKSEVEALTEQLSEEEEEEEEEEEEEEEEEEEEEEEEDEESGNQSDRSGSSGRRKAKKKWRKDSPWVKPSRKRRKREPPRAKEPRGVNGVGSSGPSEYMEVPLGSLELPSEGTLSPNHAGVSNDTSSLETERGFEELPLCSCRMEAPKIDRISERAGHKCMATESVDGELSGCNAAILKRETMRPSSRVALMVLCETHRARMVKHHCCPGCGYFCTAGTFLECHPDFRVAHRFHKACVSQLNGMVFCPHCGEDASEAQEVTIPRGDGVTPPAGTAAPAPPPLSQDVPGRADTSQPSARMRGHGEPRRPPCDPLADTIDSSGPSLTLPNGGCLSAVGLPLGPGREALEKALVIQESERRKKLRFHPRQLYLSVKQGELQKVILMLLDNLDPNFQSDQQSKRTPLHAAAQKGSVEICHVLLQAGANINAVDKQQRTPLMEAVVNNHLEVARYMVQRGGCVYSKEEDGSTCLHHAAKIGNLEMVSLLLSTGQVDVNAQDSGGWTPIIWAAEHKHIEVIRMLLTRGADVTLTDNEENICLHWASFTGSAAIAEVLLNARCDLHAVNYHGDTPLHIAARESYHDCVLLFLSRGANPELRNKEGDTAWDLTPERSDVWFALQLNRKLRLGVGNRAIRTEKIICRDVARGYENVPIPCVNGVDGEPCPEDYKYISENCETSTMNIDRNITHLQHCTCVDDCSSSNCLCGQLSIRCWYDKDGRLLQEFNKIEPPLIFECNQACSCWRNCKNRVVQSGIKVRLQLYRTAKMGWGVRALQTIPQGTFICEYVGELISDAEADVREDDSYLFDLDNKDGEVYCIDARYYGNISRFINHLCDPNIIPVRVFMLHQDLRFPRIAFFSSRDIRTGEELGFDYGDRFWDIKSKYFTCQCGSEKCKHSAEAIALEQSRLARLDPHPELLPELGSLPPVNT

NTMT1 [4] = target: T1, NTMT1; conditions: read-out: Kd for NTMT1; peptide substrate; cited from earlier work

PRMT1, sequence (Q99873 whole entry, species assumed): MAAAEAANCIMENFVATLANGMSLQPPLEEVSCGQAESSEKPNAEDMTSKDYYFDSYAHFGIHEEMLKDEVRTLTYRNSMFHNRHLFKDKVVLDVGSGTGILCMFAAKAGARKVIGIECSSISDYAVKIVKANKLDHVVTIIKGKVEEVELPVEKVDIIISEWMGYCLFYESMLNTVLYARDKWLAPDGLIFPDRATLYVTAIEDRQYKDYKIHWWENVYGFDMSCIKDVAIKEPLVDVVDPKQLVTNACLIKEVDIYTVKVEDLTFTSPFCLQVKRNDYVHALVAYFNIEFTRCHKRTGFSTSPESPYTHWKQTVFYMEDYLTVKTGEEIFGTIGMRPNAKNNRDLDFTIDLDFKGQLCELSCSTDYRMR

N=C(N)NCCC[C@H](NC(=O)[C@H](CCCCN)NC(=O)[C@@H]1CCCN1C(=O)Cc1ccc(O)cc1)C(N)=O [Compound 6]
fold increased activity compared to 5 (NTMT1 [1]; IC50 ratio vs compound 5): approximately 7 fold
IC50 (PRMT1): > 100000 nM
inhibition of NTMT1 versus NTMT2 in the panel ([2]; 100 μM): comparable inhibition against both NTMT1 and NTMT2
inhibition against the remaining 39 MTases ([2]; 100 μM, duplicates): very marginal inhibition
selectivity for NTMT1/2 over other MTases of the panel ([2]; compared to PKMTs, PRMTs and DNMTs): over 100 fold
inhibition pattern with respect to peptide substrate RCC1-6 (SPKRIA) (NTMT1 [3]; varying RCC1-6, fixed SAM): competitive
inhibition pattern with respect to cofactor SAM (NTMT1 [3]; varying SAM, fixed RCC1-6): noncompetitive
cellular level / penetration by MS detection (HCT116 cells): did not display any

N=C(N)NCCC[C@H](NC(=O)[C@H](CCCCN)NC(=O)[C@@H]1CCCN1C(=O)CCc1ccc(O)cc1)C(N)=O [Compound 10]
fold loss in inhibition compared to 6 (BM30) (NTMT1 [1]): 5 fold

N=C(N)NCCC[C@H](NC(=O)[C@H](CCCCN)NC(=O)[C@@H]1CCCN1C(=O)CCc1ccc(N)cc1)C(N)=O [Compound 11]
fold loss in inhibition compared to parent compound 7 (NTMT1 [1]; IC50 ratio vs compound 7): 3 fold

N=C(N)NCCC[C@H](NC(=O)[C@H](CCCCN)NC(=O)[C@@H]1CCCN1CCc1ccc(O)cc1)C(N)=O [Compound 12]
inhibitory activity for NTMT1 (in words) (NTMT1 [1]): did not show any inhibitory activity

CC1(C(=O)N[C@@H](CCCCN)C(=O)N[C@@H](CCCNC(=N)N)C(N)=O)CCCN1C(=O)Cc1ccccc1 (stereo partly drawn) [Compound 13] (PhAc-[ξαMeP]-Lys-Arg-NH2)
inhibitory activity for NTMT1 (in words) (NTMT1 [1]): completely lost the inhibitory activity

N=C(N)NCCC[C@H](NC(=O)[C@H](CCCCN)NC(=O)c1cccc(NC(=O)Cc2ccc(O)cc2)c1)C(N)=O [Compound 14]
inhibitory activity for NTMT1 (in words) (NTMT1 [1]): did not exhibit any inhibitory activity

N=C(N)NCCC[C@H](NC(=O)[C@H](CCCCN)NC(=O)c1ccccc1NC(=O)Cc1ccc(O)cc1)C(N)=O [Compound 15]
inhibitory activity for NTMT1 (in words) (NTMT1 [1]): did not exhibit any inhibitory activity

NCCCC[C@H](NC(=O)[C@H](CCCCN)NC(=O)[C@@H]1CCCN1C(=O)Cc1ccc(O)cc1)C(N)=O [Compound 17]
inhibitory activity for NTMT1 (in words) (NTMT1 [1]): negligible difference in inhibition compared to BM30

C[C@@H](O)[C@H](NC(=O)[C@H](CCCCN)NC(=O)[C@@H]1CCCN1C(=O)Cc1ccc(O)cc1)C(N)=O [Compound 18]
fold loss in inhibition compared to 6 (BM30) (NTMT1 [1]): 5 fold

C[C@H](NC(=O)[C@H](CCCCN)NC(=O)[C@@H]1CCCN1C(=O)Cc1ccc(O)cc1)C(N)=O [Compound 19]
fold loss in inhibition compared to 6 (BM30) (NTMT1 [1]): 5 fold

NCCCC[C@H](NC(=O)[C@@H]1CCCN1C(=O)Cc1ccc(O)cc1)C(=O)NCC(N)=O [Compound 20]
fold loss in inhibition compared to 6 (BM30) (NTMT1 [1]): ~14 fold

NCCCC[C@H](NC(=O)[C@@H]1CCCN1C(=O)Cc1ccc(O)cc1)C(N)=O [Compound 21]
fold loss in inhibition compared to 6 (BM30) (NTMT1 [1]): 18 fold

N=C(N)NCCC[C@@H](NC(=O)[C@H](CCCCN)NC(=O)[C@@H]1CCCN1C(=O)Cc1ccc(O)cc1)C(N)=O [Compound 22]
inhibition for G9a (in words) (G9a): exhibited inhibition

YPKRIA
Kd (NTMT1 [4]): 100 nM

— publication PMC7486280 (Journal of medicinal chemistry, 2020)
